Source: US9149462B2, “Pyrazole compounds acting against allergic, inflammatory and immune disorders” (Glaxo Group Limited, priority 2010, dated 2015)

How the values were obtained:
Format in all cases: in vitro ADME
[1] = In vitro microsomal clearance, human
[2] = In vitro microsomal clearance, rat (CD)
[3] = In vitro microsomal clearance, rat (Wistar Han)
[4] = In vitro microsomal clearance, dog (Beagle)

| Compound | Clint [1] | Clint [2] | Clint [3] | Clint [4] |
| --- | --- | --- | --- | --- |
| O=C(Nc1cnn(Cc2c(F)cccc2C(F)(F)F)c1)c1c(F)cccc1F [Example 6, 2,6-Difluoro-N-(1-{[2-fluoro-6-(trifluoromethyl)phenyl]methyl}-1H-pyrazol-4-yl)benzamide] | 0.80 mL/min g liver | 1.67 mL/min g liver | 2.05 mL/min g liver | 0.98 mL/min g liver |
| [2H]C([2H])(c1c(F)cccc1C(F)(F)F)n1cc(NC(=O)c2c(F)cccc2F)cn1 [Example 29, 2,6-Difluoro-N-(1-(2-fluoro-6-(trifluoromethyl)-d2-benzyl)-1H-pyrazol-4-yl)benzamide] | <0.5 mL/min g liver | 0.95 mL/min g liver | 1.16 mL/min g liver | 0.80 mL/min g liver |
